Test results as given in ChEMBL document CHEMBL5143559, “Discovery of highly potent SARS-CoV-2 Mpro inhibitors based on benzoisothiazolone scaffold” (Bioorg Med Chem Lett, 2022).
Activity calls are given as the source filed them. No cut-off for these calls is given here.

Tests used:
[1] = molecular target: Replicase polyprotein 1ab (Severe acute respiratory syndrome coronavirus 2) (UniProt P0DTD1); experiment: Inhibition of SARS-CoV-2 main protease using Mca-AVLQSGFRK(Dnp)K as substrate at 40 uM preincubated with enzyme for 10 mins followed by substrate addition and measured every 30 secs for 10 mins by fluorescence based analysis; settings: time 20.0 min
[2] = molecular target: T1, Replicase polyprotein 1ab (Severe acute respiratory syndrome coronavirus 2, UniProt P0DTD1); experiment: Inhibition of SARS-CoV-2 main protease using Mca-AVLQSGFRK(Dnp)K as substrate preincubated with enzyme for 10 mins followed by substrate addition and measured every 30 secs for 10 mins by fluorescence based analysis
[3] = molecular target: Replicase polyprotein 1ab (Severe acute respiratory syndrome coronavirus 2) (UniProt P0DTD1); experiment: Irreversible inhibition of SARS-CoV-2 main protease by fast dilution experiment based analysis
[4] = molecular target: T1, Replicase polyprotein 1ab; experiment: Inhibition of SARS-CoV-2 RdRp

| SMILES | inhibition [1] [%] | IC50 [2] [nM] | inhibition [3] | IC50 [4] [nM] |
| --- | --- | --- | --- | --- |
| CC(C)(C)OC(=O)Cn1sc2cc(F)ccc2c1=O | 104 | 220 |  |  |
| COc1ccc2c(=O)n(CC(=O)Nc3ccccc3)sc2c1 | 99.7 | 287 |  |  |
| O=C(Cn1sc2cc(F)ccc2c1=O)NCCc1ccccc1 | 100 | 388 |  |  |
| O=C(Cn1sc2c(F)cccc2c1=O)Nc1ccccc1 | 99.5 | 328 |  |  |
| COc1cccc2c(=O)n(CC(=O)Nc3ccccc3)sc12 | -6.8 |  |  |  |
| COc1cccc(NC(=O)Cn2sc3cc(F)ccc3c2=O)c1 | 101 | 150 |  |  |
| O=C(Cn1sc2cc(F)ccc2c1=O)Nc1ccc(C(F)(F)F)cc1 | 100 | 210 |  |  |
| O=C(Cn1sc2ccc(F)cc2c1=O)Nc1ccccc1 | 99.7 | 287 |  |  |
| O=C(Cn1sc2cccc(F)c2c1=O)Nc1ccccc1 | 99.5 | 117 | Active |  |
| O=C(Cn1sc2ccccc2c1=O)Nc1ccccc1 | 99.7 | 165 |  |  |
| COc1cccc2sn(CC(=O)Nc3ccccc3)c(=O)c12 | 99.6 | 334 |  |  |
| COc1cc(NC(=O)Cn2sc3cc(F)ccc3c2=O)cc(OC)c1 | 96.7 | 120 |  |  |
| O=C(Cn1sc2cccc(C(F)(F)F)c2c1=O)Nc1ccccc1 | 99.7 | 224 |  |  |
| O=C(Cn1[nH]c2cc(F)ccc2c1=O)Nc1ccccc1 | 26.3 |  |  |  |
| O=C(Cn1sc2cc(C(F)(F)F)ccc2c1=O)Nc1ccccc1 | 100 | 524 |  |  |
| O=C(Cn1sc2cc(F)ccc2c1=O)Nc1cc(Cl)cc(Cl)c1 | 108 | 190 |  |  |
| O=c1c2ccc(F)cc2sn1CCCc1ccccc1 | 102 | 540 |  |  |
| COc1ccc2sn(CC(=O)Nc3ccccc3)c(=O)c2c1 | 99.7 | 153 |  |  |
| Nc1ccc2c(=O)n(CC(=O)Nc3ccccc3)sc2c1 | 99.7 | 443 |  |  |
| Nc1cccc2c(=O)n(CC(=O)Nc3ccccc3)sc12 | 58.8 | 11000 |  |  |
| CC(=O)NCn1sc2cc(F)ccc2c1=O | 102 | 253 |  |  |
| COc1ccccc1NC(=O)Cn1sc2cc(F)ccc2c1=O | 99.2 | 180 |  |  |

| SMILES | inhibition [1] [%] | IC50 [2] [nM] | inhibition [3] | IC50 [4] [nM] |
| --- | --- | --- | --- | --- |
| Nc1cccc2sn(CC(=O)Nc3ccccc3)c(=O)c12 | 99.4 | 1770 |  |  |
| O=C(Cn1c(=O)c2ccc(F)cc2[s+]1[O-])Nc1ccccc1 (stereo unspecified) | 23.5 |  |  |  |
| O=C(Cn1oc2cc(F)ccc2c1=O)Nc1ccccc1 | 7 |  |  |  |
| O=C(Cn1sc2cc(F)ccc2c1=O)Nc1ccccc1 | 102 | 190 |  | 6400 |
| O=C(Cn1sc2cc(F)ccc2c1=O)Nc1ccc(Cl)cc1 | 95.7 | 150 |  |  |
| O=C(Cn1sc2c(C(F)(F)F)cccc2c1=O)Nc1ccccc1 | -7.6 |  |  |  |
| O=C(Cn1sc2cc(F)ccc2c1=O)NC1CCCC1 | 95.5 | 400 |  |  |
| O=C(CN1C(=O)c2ccc(F)cc2S1(=O)=O)Nc1ccccc1 | 18.3 |  |  |  |
| O=C(Nc1ccccc1)n1sc2cc(F)ccc2c1=O | 102 | 680 |  | 15300 |
| O=C(Cn1sc2ccc(C(F)(F)F)cc2c1=O)Nc1ccccc1 | 99.7 | 393 |  |  |
| O=C(O)Cn1sc2cc(F)ccc2c1=O | 98.4 | 1570 |  |  |
| O=C(Cn1sc2cc(F)ccc2c1=O)Nc1cccc(C(F)(F)F)c1 | 98.9 | 250 |  |  |
| CC(C)(C)c1ccc(NC(=O)Cn2sc3cc(F)ccc3c2=O)cc1 | 99.9 | 310 |  |  |
| Nc1ccc2sn(CC(=O)Nc3ccccc3)c(=O)c2c1 | 99.8 | 416 |  |  |
| COc1ccc(NC(=O)Cn2sc3cc(F)ccc3c2=O)cc1 | 99.3 | 300 |  |  |
| O=c1[nH]sc2cc(F)ccc12 | 106 | 2290 |  |  |
| O=C(Cn1sc2cc(F)ccc2c1=O)Nc1ccccc1Cl | 94 | 190 |  |  |
| O=C(Cn1sc2cc(F)ccc2c1=O)Nc1cccc(Cl)c1 | 95.5 | 140 |  |  |
| O=C(Cn1sc2cc(F)ccc2c1=O)NCc1ccccc1 | 104 | 230 |  |  |
| O=C(Cn1sc2cc(F)ccc2c1=O)NC1CCCCC1 | 97.7 | 160 |  | 7900 |
| CCNC(=O)Cn1sc2cc(F)ccc2c1=O | 102 | 380 |  |  |
| O=C(Cn1sc2cc(F)ccc2c1=O)Nc1ccccc1C(F)(F)F | 105 | 335 |  |  |
